Experimental data as given in patent US20030113940A1, “Antibodies specific for nanotubes and related methods and compositions” (priority 2001, published 2003).
Like-named read-outs stand apart in the source and are kept apart here. Each block holds one molecule with its values, some of them ahead of it.

How the values were obtained:
[1] = test system: human keratinocytes; details: after 6 hours; 32,000 dpm, 1.3 μM; cited from earlier work
[2] = test system: human keratinocytes and fibroblasts; details: C60 suspension; cited from earlier work
[3] = test system: anti-fullerene antibodies (immune serum); assay: Specificity of the immune response by double diffusion in agar; type: binding, mouse
Experimental: (§1) Specificity of the response was determined by two procedures: double diffusion in agar (22) and competitive inhibition, as determined by ELISA using RSA and BSA conjugates of the fullerenes, as well as the oligo lysine derivatives. The fullerenes themselves were not soluble enough in aqueous solutions.
Specificity of the immune response first was determined by double diffusion in agar.
Confluent lines of precipitation were seen associated with wells 1-5 with a spur between wells 2 and 3, pointing toward 3, i.e., toward 1-BSA. This finding is evidence of a population of antibodies reactive with both 1 and 2, with an additional population specific for the carrier protein of the immunogen, 1-TG. The identity of precipitation with 1 and 2 is evidence for the lack of participation of the linker group, which is missing from 2. […] Anti-TG also could be detected by ELISA (below).

[4] = test system: anti-fullerene antibodies binding to 1-RSA; assay: ELISA inhibition of antibody binding to 1-RSA; parameters: species or system mouse
Experimental: After a total of three immunizations at 3-week intervals, confirmation of an immune response was determined by direct ELISA in which polystyrene plates (Corning) were coated with the 1-RSA conjugate (0.5 mg/ml in 0.1 M NaHCO3, pH 9), and binding of preimmune and immune sera were determined by standard procedures. Development was with horseradish peroxidase-labeled goat anti-mouse IgG (Sigma), which tested negative for crossreaction with an IgM preparation. The substrate used was o-phenylenediamine.
as §1
The adenosine conjugate had been synthesized using the same strategy used for the fullerenes, i.e., linkage to the epsilon amino groups of the lysines via an N-hydroxysuccinimide ester derivative.
Specificity also was determined by ELISA inhibition studies (FIG. 6). Binding to 1-RSA was inhibited by 1-RSA, 1-BSA, 1-TG, 3-pentalysine, 2-pentalysine, and 1-pentalysine. Inhibition by 2-pentalysine is additional evidence for nonparticipation of the linker group, i.e., specificity for the C60 moiety. […]

[5] = Air sensitivity; type: physicochemical
Description: While previous work reported in the literature performed HPLC under aerobic conditions, (see for example Funasaka et al. 1995) these studies determined that anaerobic controls better preserved the fraction of Gd@C82 in solution. […] The fraction containing the Gd@C82 was identified using MS. The solubility of fullerenes in o-xylene is about three times that of toluene and this greatly increases the ratio of fullerenes in solution to those retained on the stationary phase. Therefore, the capacity or amount of fullerenes purified per injection was very large. Each injection contained 2 ml of saturated fullerene o-xylene solution (about 30 mg of fullerenes).

[6] = Atomic force microscopy of antibody binding to SWNT
Experimental: C60 Antibodies on SWNTs were directly imaged by atomic force microscopy. SWNT ropes on mica were initially imaged, the surface was then exposed to antibody solution, and finally; the same SWNT was imaged again in air. This sequence distinguishes any preexisting surface particles from bound antibodies. Three drops of aqueous SWNT suspension (0.064 mg/mL in Triton 100×surfactant, from Tubes@Rice) were spun onto a freshly cleaved mica surface. One drop of fullerene-specific antibody(0.00125 mg/mL in 10 mM phosphate buffer, 150 mM NaCl, pH 7.3) was then deposited onto the surface. Liquid was removed by glass piper after 8 min, and the sample was dried in air. The sample was then washed with 60 drops of water while spinning to remove weakly bound, physisorbed antibody layers. The same SWNT was then imaged in FIG. 24. A significant number of objects are adsorbed on the nanotube, in previously clean regions, and on the mica substrate. […] The mica antibody images are similar in height, width, and dimpled appearance to those previously reported for monoclonal mouse IgG1 on mica (10).
In a separate experiment, we mixed an aqueous SWNT suspension with an anti-fullerene antibody solution and then imaged the SWNTs on mica. One drop of antibody solution (0.25 mg/mL) was mixed with 5 mL of SWNT suspension (0.064 mg/ml) and cooled at 5° C. for 2 h. Three drops of this mixture were spun on a freshly cleaved […] and imaged without washing.

Molecule: c12c3c4c5c1c1c6c7c2c2c8c3c3c9c4c4c%10c5c5c1c1c6c6c%11c7c2c2c7c8c3c3c8c9c4c4c9c%10c5c5c1c1c6c6c%11c2c2c7c3c3c8c4c4c9c5c1c1c6c2c3c41 [Compound C60, fullerene-C60]
applied radioactivity taken up by the keratinocytes [1]: approximately 50% | effect on the rate of thymidine uptake [2]: no effect

Molecule: Gd@C82(OH)x
air sensitivity [5]: does not appear to be air sensitive

Second part, led by results:

inhibition of binding to 1-RSA (ELISA) [4]: No inhibition
Molecule: bovine thyroglobulin [TG]
precipitation in double diffusion in agar ([3]; TG solution diluted 5-fold): line of precipitation was seen | precipitation in double diffusion in agar ([3]; undiluted antigen solutions): no visible precipitate

inhibition of binding to 1-RSA (ELISA) [4]: No inhibition
Molecule: rabbit serum albumin [RSA]

binding of antibody to SWNT (AFM image) [6]: antibodies on the nanotube and on mica | binding of antibody to SWNT (AFM image) ([6]; listed as anti-fullerene/anti-nanotube antibody): bound to a nanotube | binding of antibody to SWNT (AFM image) ([6]; listed as monoclonal IgG C60-specific antibody): specifically binds
B1: fullerene-specific antibody: monoclonal antibody produced by hybridoma 1-10F-8A (ATCC PTA-279) (antibody, V domains shown)
VH: MGCSWGMLFLLSITAGVHCQVHLQQSGPELVRPGASVKISCKTSGYVFSSSWMNWVKQRPGQGLKWIGRIYPGNGNTNYNEKFKGKATLTADKSSNTAYMQLSSLTSVDSAVYFCATSSAYWGQGTLLTVSA
VL: DIQMTQTTSSLSASLGDRVTFSCSASQDINNYLNWYQQKPDGTIKLLIYYTSSLRSGVPSRFSGSGSGTDYSLTINNLEPEDIATYFCQQYSRLPFTFGSGTKLEIKRK
modifications: Mouse [murine]; Mouse
